Laboratory results as given in PubChem BioAssay AID330 (DTP/NCI, 2004).
Values joined by “and” are separate entries in the source; they are usually repeats but may differ in a detail not shown here. Identical values can stand only once. Toxic doses and inconclusive results are not listed.

Test system: P388 leukemia ip, CD2F1 mice, survival T/C
Assay: NCI In Vivo Anticancer Drug Screen. Data for tumor model P388 Leukemia (intraperitoneal) in CD2F1 (CDF1) mice
Details: endpoint: median survival time, higher = longer survival
In short: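 Mice carrying the transplanted tumor received test compound or vehicle. Survival was recorded in each group, and the value is the treated-group measurement divided by that of the vehicle-treated control group.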

[1] = dose: 100.0 mg/kg/injection, schedule: Q04DX002 (ip), vehicle: saline
[2] = dose: 60.0 mg/kg/injection, schedule: Q01DX005 (ip), vehicle: saline with Tween-80
[3] = dose: 50.0 mg/kg/injection, schedule: Q01DX009 (ip), vehicle: saline with Tween-80
[4] = dose: 100.0 mg/kg/injection, schedule: Q01DX009 (ip), vehicle: saline with Tween-80
[5] = dose: 50.0 mg/kg/injection, schedule: Q01DX005 (ip), vehicle: saline with Tween-80
[6] = dose: 100.0 mg/kg/injection, schedule: Q01DX005 (ip), vehicle: saline with Tween-80
[7] = dose: 200.0 mg/kg/injection, schedule: Q01DX005 (ip), vehicle: saline with Tween-80
[8] = dose: 50.0 mg/kg/injection, schedule: Q01DX005 (ip), vehicle: saline
[9] = dose: 100.0 mg/kg/injection, schedule: Q01DX005 (ip), vehicle: saline
[10] = dose: 200.0 mg/kg/injection, schedule: Q01DX005 (ip), vehicle: saline
[11] = dose: 100.0 mg/kg/injection, schedule: Q04DX003 (ip), vehicle: Klucel (hydroxypropylcellulose) (HPC)
[12] = dose: 200.0 mg/kg/injection, schedule: Q04DX003 (ip), vehicle: Klucel (hydroxypropylcellulose) (HPC)
[13] = dose: 400.0 mg/kg/injection, schedule: Q04DX003 (ip), vehicle: Klucel (hydroxypropylcellulose) (HPC)
[14] = dose: 50.0 mg/kg/injection, schedule: Q01DX009 (ip), vehicle: Klucel (hydroxypropylcellulose) (HPC)
[15] = dose: 100.0 mg/kg/injection, schedule: Q01DX009 (ip), vehicle: Klucel (hydroxypropylcellulose) (HPC)
[16] = dose: 200.0 mg/kg/injection, schedule: Q01DX009 (ip), vehicle: Klucel (hydroxypropylcellulose) (HPC)
[17] = dose: 100.0 mg/kg/injection, schedule: Q01DX001 (ip), vehicle: saline with Tween-80
[18] = dose: 200.0 mg/kg/injection, schedule: Q01DX001 (ip), vehicle: saline with Tween-80
[19] = dose: 400.0 mg/kg/injection, schedule: Q01DX001 (ip), vehicle: saline with Tween-80

COc1cc([C@@H]2c3cc4c(c(O)c3C[C@H]3COC(=O)[C@@H]32)OCO4)cc(OC)c1O
T/C (dose: 0.25 mg/kg/injection, schedule: Q01DX009 (ip), vehicle: suspension in saline): 121 % of control | T/C (dose: 1.0 mg/kg/injection, schedule: Q01DX009 (ip), vehicle: saline): 150 % of control | T/C (dose: 1.0 mg/kg/injection, schedule: Q01DX009 (ip), vehicle: suspension in saline): 99 % of control

CN(C)C(=O)c1cc(C(=O)N(C)C)cc2cccc-2c1
T/C (dose: 25.0 mg/kg/injection, schedule: Q04DX002 (ip), vehicle: saline): 102 % of control | T/C (dose: 50.0 mg/kg/injection, schedule: Q04DX002 (ip), vehicle: saline): 98 % of control | T/C [1]: 99 % of control and 97 % of control

N#COc1ccc(-c2ccccc2)cc1
T/C [2]: 90 % of control | T/C (dose: 120.0 mg/kg/injection, schedule: Q01DX005 (ip), vehicle: saline with Tween-80): 87 % of control | T/C (dose: 240.0 mg/kg/injection, schedule: Q01DX005 (ip), vehicle: saline with Tween-80): 86 % of control and 90 % of control

C/C=C/C[P+](C)(c1ccccc1)c1ccccc1
T/C (dose: 0.75 mg/kg/injection, schedule: Q01DX009 (ip), vehicle: saline): 104 % of control

CCCC(NC)C(CC)CN (stereo not given)
T/C [3]: 95 % of control | T/C [4]: 100 % of control

CC1(C)C=Cc2c(ccc(C(=O)Cc3ccccc3)c2O)O1
T/C [5]: 99 % of control | T/C [6]: 96 % of control | T/C [7]: 93 % of control

CCN(CC)CCCC(C)Nc1cc(O)c2c(c1O)C(=O)c1ccccc1C2=O (stereo not given)
T/C [5]: 102 % of control | T/C [6]: 98 % of control | T/C [7]: 111 % of control

COc1c(C)n(CCO)ccc1=O
T/C [8]: 102 % of control and 104 % of control | T/C [9]: 99 % of control and 100 % of control | T/C [10]: 99 % of control and 100 % of control | T/C (dose: 400.0 mg/kg/injection, schedule: Q01DX005 (ip), vehicle: saline): 99 % of control and 103 % of control

Cc1c(N=Nc2ccc([N+](=O)[O-])cc2)nc2scc(-c3ccccc3)n12
T/C (dose: 25.0 mg/kg/injection, schedule: Q04DX002 (ip), vehicle: Klucel (hydroxypropylcellulose) (HPC)): 121 % of control | T/C (dose: 100.0 mg/kg/injection, schedule: Q04DX002 (ip), vehicle: Klucel (hydroxypropylcellulose) (HPC)): 86 % of control

CC1CCCC(CC2CCCC[N-]2)[N-]1.CC1CCCC(CC2CCCC[N-]2)[N-]1.[Ni+2].[O-][Cl+3]([O-])([O-])O (stereo not given)
T/C (dose: 25.0 mg/kg/injection, schedule: Q01DX001 (ip), vehicle: saline): 95 % of control | T/C (dose: 50.0 mg/kg/injection, schedule: Q01DX001 (ip), vehicle: saline): 94 % of control | T/C (dose: 100.0 mg/kg/injection, schedule: Q01DX001 (ip), vehicle: saline): 108 % of control and 95 % of control

CC1(C)C(C(=O)/C=C/c2ccccc2)C1[N+](=O)[O-] (stereo not given)
T/C (dose: 50.0 mg/kg/injection, schedule: Q04DX003 (ip), vehicle: Klucel (hydroxypropylcellulose) (HPC)): 96 % of control | T/C [11]: 96 % of control | T/C [12]: 100 % of control | T/C [13]: 101 % of control

CCC1=C[C@@H]2C[C@](C(=O)OC)(c3cc4c(cc3OC)N(C)[C@H]3[C@@](O)(C(=O)OC)[C@H](OC(C)=O)[C@]5(CC)C=CCN6CC[C@]43[C@@H]65)c3[nH]c4ccccc4c3CCN(C1)[C@@H]2O
T/C (dose: 2.5 mg/kg/injection, schedule: Q01DX001 (ip), vehicle: water): 117 % of control | T/C (dose: 20.0 mg/kg/injection, schedule: Q01DX001 (ip), vehicle: water): 153 % of control and 159 % of control | T/C (dose: 40.0 mg/kg/injection, schedule: Q01DX001 (ip), vehicle: water): 161 % of control and 170 % of control | T/C (dose: 80.0 mg/kg/injection, schedule: Q01DX001 (ip), vehicle: water): 180 % of control | T/C (dose: 160.0 mg/kg/injection, schedule: Q01DX001 (ip), vehicle: water): 93 % of control

COC1CC(C)C(OC)C2=CC(=O)C=C(NC(=O)/C(C)=C/C=C\C(C)C(OC(N)=O)/C(C)=C\C(C)C1OC)C2=O (stereo not given)
T/C (dose: 5.0 mg/kg/injection, schedule: Q01DX009 (ip), vehicle: saline + alcohol): 121 % of control | T/C (dose: 10.0 mg/kg/injection, schedule: Q01DX009 (ip), vehicle: saline + alcohol): 123 % of control | T/C (dose: 20.0 mg/kg/injection, schedule: Q01DX009 (ip), vehicle: saline + alcohol): 86 % of control

CC12CCC(OC3CCCCO3)CC1=CCC1C2CCC2(C)C(O)/C(=N\O)CC12 (stereo not given)
T/C [1]: 91 % of control | T/C (dose: 200.0 mg/kg/injection, schedule: Q04DX002 (ip), vehicle: saline): 94 % of control | T/C (dose: 400.0 mg/kg/injection, schedule: Q04DX002 (ip), vehicle: saline): 90 % of control

COC(c1cc(C(O)(C(F)(F)F)C(F)(F)F)cc(C(OC)(C(F)(F)F)C(F)(F)F)c1)(C(F)(F)F)C(F)(F)F
T/C [11]: 100 % of control | T/C [12]: 100 % of control | T/C [13]: 92 % of control

CSC(C(C)=O)c1ccccc1 (stereo not given)
T/C (dose: 25.0 mg/kg/injection, schedule: Q01DX009 (ip), vehicle: saline with Tween-80): 100 % of control | T/C [3]: 100 % of control | T/C [4]: 104 % of control

CNS(=O)(=O)c1ccc(Cl)cc1
T/C (dose: 3.13 mg/kg/injection, schedule: Q01DX009 (ip), vehicle: saline): 94 % of control | T/C (dose: 6.25 mg/kg/injection, schedule: Q01DX009 (ip), vehicle: saline): 99 % of control | T/C (dose: 12.5 mg/kg/injection, schedule: Q01DX009 (ip), vehicle: saline): 98 % of control | T/C (dose: 25.0 mg/kg/injection, schedule: Q01DX009 (ip), vehicle: saline): 98 % of control

C=C1C(=O)C(CCC)=C(CC)C1O (stereo not given)
T/C [2]: 105 % of control

CCN(CC)CCNc1ccc(COC(=O)Nc2ccccc2)c2sc3ccccc3c(=O)c12
T/C (dose: 6.25 mg/kg/injection, schedule: Q01DX005 (ip), vehicle: Klucel + Tween-80): 111 % of control

O=C1C(O)[C@@H](O)C(=O)N1Cc1ccccc1 (stereo not given in full)
T/C (dose: 60.0 mg/kg/injection, schedule: Q01DX005 (ip), vehicle: Klucel (hydroxypropylcellulose) (HPC)): 97 % of control | T/C (dose: 120.0 mg/kg/injection, schedule: Q01DX005 (ip), vehicle: Klucel (hydroxypropylcellulose) (HPC)): 102 % of control | T/C (dose: 240.0 mg/kg/injection, schedule: Q01DX005 (ip), vehicle: Klucel (hydroxypropylcellulose) (HPC)): 93 % of control

ClC(Cl)(Cl)C(c1cccs1)c1cccs1
T/C [14]: 103 % of control | T/C [15]: 100 % of control | T/C [16]: 109 % of control | T/C (dose: 400.0 mg/kg/injection, schedule: Q01DX009 (ip), vehicle: Klucel (hydroxypropylcellulose) (HPC)): 104 % of control

CC1Cc2nc3ccccc3c(=O)n2O1 (stereo not given)
T/C [14]: 103 % of control | T/C [15]: 107 % of control | T/C [16]: 103 % of control

CN1c2ccccc2S(=O)(=O)n2nnnc21
T/C [17]: 101 % of control | T/C [18]: 101 % of control | T/C [19]: 97 % of control

COC(=O)c1nc(Cl)[nH]c1CC#N
T/C [8]: 103 % of control | T/C [9]: 112 % of control | T/C [10]: 105 % of control

COC(=O)Cn1/c(=N\N=C(/C)c2ccc(OC)cc2)sc2ccccc21
T/C [17]: 101 % of control | T/C [18]: 117 % of control | T/C [19]: 92 % of control

C=CCSc1ncnc2nc[nH]c12
T/C [3]: 100 % of control | T/C [4]: 109 % of control | T/C (dose: 100.0 mg/kg/injection, schedule: Q04DX003 (ip), vehicle: saline with Tween-80): 104 % of control | T/C (dose: 200.0 mg/kg/injection, schedule: Q04DX003 (ip), vehicle: saline with Tween-80): 104 % of control

CC(=O)OC1=NC(C)c2c1cc(OC(C)=O)nc2OC(C)=O (stereo not given)
T/C [14]: 104 % of control | T/C [15]: 102 % of control | T/C [16]: 102 % of control
